From ChEMBL document CHEMBL5321230, “Design, synthesis, and biological evaluation of novel HIV-1 protease inhibitors containing pyrrolidine-derived P2 ligands to combat drug-resistant variant” (Eur J Med Chem, 2023)

How the values were obtained:
[1] = target: Human immunodeficiency virus type 1 protease (Human immunodeficiency virus 1, UniProt Q72874); assay: Inhibition of HIV-1 protease expressed in Escherichia coli using Arg-Glu(EDANS)-Ser-Gln-Asn-Tyr-Pro-Ile-Val-Gln-Lys(DABCYL)-Arg peptide as substrate preincubated for 20 to 30 mins followed by substrate addition and measured for 10 mins by FRET assay
[2] = Cytotoxicity against human HEK293T cells assessed as reduction in cell viability incubated for 24 hrs by CCK-8 assay; type: toxicity, cell-based, HEK-293T
[3] = test system: Human immunodeficiency virus 1; assay: (§1) Antiviral activity against wild type VSV-G pseudotyped HIV-1 NL4-3 infected in human HEK293T cells assessed as inhibition of viral replication by measuring luciferase activity incubated for 48 hrs further infected with human SupT1 cells for 48 hrs by luciferase based analysis; type: functional, organism-based; conditions: Human immunodeficiency virus 1, NL4-3, HEK-293T
[4] = test system: Human immunodeficiency virus 1; assay: as §1, with “drug-resistant” for “wild type”, “NL4-3 harboring protease V32I/L33F/I54M/I84V mutant” for “NL4-3”; type: functional, organism-based; conditions: Human immunodeficiency virus 1, NL4-3, HEK-293T

In the case of CC(C)CN(C[C@@H](O)[C@H](Cc1ccccc1)NC(=O)[C@H]1CCNC1)S(=O)(=O)c1ccc(N)cc1, the IC50 [1] is reported as 12.5 µM.

COc1ccc(S(=O)(=O)N(CC(C)C)C[C@@H](O)[C@H](Cc2ccccc2)NC(=O)N[C@@H]2CCNC2)cc1 gave an IC50 [1] of 20.7 µM.

CC(C)CN(C[C@@H](O)[C@H](Cc1ccccc1)NC(=O)[C@H]1CCCN1)S(=O)(=O)c1ccc(O)cc1 gave an IC50 [1] of 96.9 µM.

CC(C)CN(C[C@@H](O)[C@H](Cc1ccccc1)NC(=O)[C@@H]1CCCN1)S(=O)(=O)c1ccc(O)cc1 gave an IC50 [1] of 0.97 µM.

Work on COc1ccc(S(=O)(=O)N(CC(C)C)C[C@@H](O)[C@H](Cc2ccccc2)NC(=O)C[C@@H]2CCNC2)cc1 yielded an IC50 [1] of 20.5 µM.

For COc1ccc(S(=O)(=O)N(CC(C)C)C[C@@H](O)[C@H](Cc2ccccc2)NC(=O)[C@@H]2CCNC2)cn1, the IC50 [1] was 0.83 µM.

Molecule CC(C)CN(C[C@@H](O)[C@H](Cc1ccccc1)NC(=O)O[C@@H]1CCNC1)S(=O)(=O)c1ccc(O)cc1 has a CC50 at 24 h [2] of over 200 µM, an EC50 [3] of 750 nM and an EC50 [4] of 9.26 µM. The IC50 [1] was 0.82 µM.

With CC(C)CN(C[C@@H](O)[C@H](Cc1ccccc1)NC(=O)[C@@H]1CCNC1)S(=O)(=O)c1ccc(O)cc1 the CC50 at 24 h [2] was over 200 µM, the EC50 [3] was 290 nM and the EC50 [4] was 1.9 µM. For the same molecule, the IC50 [1] was 0.32 µM.

Work on COc1ccc(S(=O)(=O)N(CC(C)C)C[C@@H](O)[C@H](Cc2ccccc2)NC(=O)O[C@H]2CCNC2)cn1 yielded an IC50 [1] of 4.04 µM.

For COc1ccc(S(=O)(=O)N(CC(C)C)C[C@@H](O)[C@H](Cc2ccccc2)NC(=O)[C@@H]2CCCN2)cc1, the IC50 [1] was 2.19 µM.

With CC(C)CN(C[C@@H](O)[C@H](Cc1ccccc1)NC(=O)[C@@H]1CCNC1)S(=O)(=O)c1ccc(NO)cc1 the IC50 [1] was 1.21 µM.

CC(C)CN(C[C@@H](O)[C@H](Cc1ccccc1)NC(=O)C[C@@H]1CCNC1)S(=O)(=O)c1ccc(O)cc1 gave an IC50 [1] of 5.01 µM.

For CC(C)CN(C[C@@H](O)[C@H](Cc1ccccc1)NC(=O)C[C@H]1CCNC1)S(=O)(=O)c1ccc(O)cc1, the IC50 [1] was 1.43 µM.

Molecule CC(C)CN(C[C@@H](O)[C@H](Cc1ccccc1)NC(=O)O[C@H]1CCOC1)S(=O)(=O)c1ccc(N)cc1 has a CC50 at 24 h [2] of over 200 µM, an EC50 [3] of 260 nM and an EC50 [4] of 3.93 µM.

Molecule CC(C)CN(C[C@@H](O)[C@H](Cc1ccccc1)NC(=O)O[C@H]1CCNC1)S(=O)(=O)c1ccc(N)cc1 has an IC50 [1] of 5.06 µM.

For COc1ccc(S(=O)(=O)N(CC(C)C)C[C@@H](O)[C@H](Cc2ccccc2)NC(=O)[C@@H]2CCNC2)cc1, the CC50 at 24 h [2] was over 200 µM, the EC50 [3] was 1350 nM and the EC50 [4] was 2.51 µM. It also gave an IC50 [1] of 0.41 µM.

CC(C)CN(C[C@@H](O)[C@H](Cc1ccccc1)NC(=O)N[C@@H]1CCNC1)S(=O)(=O)c1ccc(O)cc1 gave an IC50 [1] of 5.97 µM.

With COc1ccc(S(=O)(=O)N(CC(C)C)C[C@@H](O)[C@H](Cc2ccccc2)NC(=O)O[C@@H]2CCNC2)cc1 the IC50 [1] was 2.58 µM.

Molecule COc1ccc(S(=O)(=O)N(CC(C)C)C[C@@H](O)[C@H](Cc2ccccc2)NC(=O)N[C@H]2CCNC2)cc1 has an IC50 [1] of 4.01 µM.

Work on CC(C)CN(C[C@@H](O)[C@H](Cc1ccccc1)NC(=O)O[C@H]1CCNC1)S(=O)(=O)c1ccc(NO)cc1 yielded an IC50 [1] of 5.1 µM.

Work on COc1ccc(S(=O)(=O)N(CC(C)C)C[C@@H](O)[C@H](Cc2ccccc2)NC(=O)C[C@H]2CCNC2)cc1 yielded an IC50 [1] of 2.77 µM.

With CC(C)CN(C[C@@H](O)[C@H](Cc1ccccc1)NC(=O)O[C@@H]1CCNC1)S(=O)(=O)c1ccc(N)cc1 the IC50 [1] was 25.4 µM.

In the case of COc1ccc(S(=O)(=O)N(CC(C)C)C[C@@H](O)[C@H](Cc2ccccc2)NC(=O)O[C@H]2CCNC2)cc1, the IC50 [1] is reported as 1.1 µM.

Work on CC(C)CN(C[C@@H](O)[C@H](Cc1ccccc1)NC(=O)O[C@@H]1CCNC1)S(=O)(=O)c1ccc(NO)cc1 yielded an IC50 [1] of 27.4 µM.

CC(C)CN(C[C@@H](O)[C@H](Cc1ccccc1)NC(=O)O[C@H]1CCNC1)S(=O)(=O)c1ccc(O)cc1 gave a CC50 at 24 h [2] of over 200 µM, an EC50 [3] of 410 nM and an EC50 [4] of 8.14 µM. For the same molecule, the IC50 [1] was 0.72 µM.

Molecule COc1ccc(S(=O)(=O)N(CC(C)C)C[C@@H](O)[C@H](Cc2ccccc2)NC(=O)[C@H]2CCCN2)cc1 has an IC50 [1] of 39.8 µM.

COc1ccc(S(=O)(=O)N(CC(C)C)C[C@@H](O)[C@H](Cc2ccccc2)NC(=O)O[C@@H]2CCNC2)cn1 gave an IC50 [1] of 23 µM.

Work on CC(C)CN(C[C@@H](O)[C@H](Cc1ccccc1)NC(=O)[C@H]1CCNC1)S(=O)(=O)c1ccc(NO)cc1 yielded an IC50 [1] of 10.9 µM.

CC(C)CN(C[C@@H](O)[C@H](Cc1ccccc1)NC(=O)[C@@H]1CCNC1)S(=O)(=O)c1ccc(N)cc1 showed an IC50 [1] of 6.16 µM.

Molecule COc1ccc(S(=O)(=O)N(CC(C)C)C[C@@H](O)[C@H](Cc2ccccc2)NC(=O)[C@H]2CCNC2)cn1 has an IC50 [1] of 4.74 µM.

With COc1ccc(S(=O)(=O)N(CC(C)C)C[C@@H](O)[C@H](Cc2ccccc2)NC(=O)[C@H]2CCNC2)cc1 the IC50 [1] was 0.6 µM.

With CC(C)CN(C[C@@H](O)[C@H](Cc1ccccc1)NC(=O)N[C@H]1CCNC1)S(=O)(=O)c1ccc(O)cc1 the IC50 [1] was 1.95 µM.

Molecule CC(C)CN(C[C@@H](O)[C@H](Cc1ccccc1)NC(=O)[C@H]1CCNC1)S(=O)(=O)c1ccc(O)cc1 has a CC50 at 24 h [2] of over 200 µM, an EC50 [3] of 1570 nM and an EC50 [4] of 13.3 µM. It also gave an IC50 [1] of 0.51 µM.
